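Cells were grown in 96-well plates and exposed to each compound for 48 hours at five concentrations; endpoints were interpolated linearly between bracketing concentrations, or set to the highest concentration if not reached. GI50: concentration for 50% inhibition of growth.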 Calls of active or inactive are those of the source. Cut-off read from the data, not from the text of the source: active = GI50 up to about 1.1 µM and inactive = higher.
Assays:
Experiment in all cases: NCI anticancer screen, dose series, 48 h
[1] = system: 786-0
[2] = system: A498
[3] = system: A549
[4] = system: ACHN
[5] = system: CAKI-1
[6] = system: CCRF-CEM
[7] = system: DLD-1
[8] = system: DMS-114
[9] = system: DMS-273
[10] = system: EKVX
[11] = system: HCC 2998
[12] = system: HCT-116
[13] = system: HCT-15
[14] = system: HL-60
[15] = system: HOP-18
[16] = system: HOP-62
[17] = system: HOP-92
[18] = system: HT-29
[19] = system: IGROV-1
[20] = system: K562
[21] = system: KM-20L2
[22] = system: KM12
[23] = system: LOX IMVI
[24] = system: LXFL 529
[25] = system: M14
[26] = system: M19-MEL
[27] = system: MOLT-4
[28] = system: Malme-3M
[29] = system: NCI-H226
[30] = system: NCI-H23
[31] = system: NCI-H460
[32] = system: NCI-H522
[33] = system: OVCAR-4
[34] = system: OVCAR-5
[35] = system: OVCAR-8
[36] = system: RPMI-8226
[37] = system: RXF 393
[38] = system: RXF 631
[39] = system: SF-268
[40] = system: SF-295
[41] = system: SF-539
[42] = system: SK-MEL-28
[43] = system: SK-MEL-2
[44] = system: SK-MEL-5
[45] = system: SK-OV-3
[46] = system: SN12C
[47] = system: SNB-19
[48] = system: SNB-75
[49] = system: SNB-78
[50] = system: SR
[51] = system: SW-620
[52] = system: TK-10
[53] = system: U-251
[54] = system: UACC-257
[55] = system: UACC-62
[56] = system: UO-31
[57] = system: XF498
[58] = system: BT-549
[59] = system: COLO 205
[60] = system: DU-145
[61] = system: Hs-578T
[62] = system: MCF7
[63] = system: MDA-MB-231
[64] = system: MDA-N
[65] = system: NCI/ADR-RES
[66] = system: OVCAR-3
[67] = system: PC-3
[68] = system: T47D

With `CN(c1nc(=[N+](C)C)ss1)C1CCCCC1` the GI50 [1] was > 100 µM (inactive), the GI50 [2] was > 100 µM (inactive) and the GI50 [3] was 38.3 µM (inactive). The GI50 [4] was > 100 µM (inactive), the GI50 [5] was > 100 µM (inactive) and the GI50 [6] was 6.92 µM (inactive). The GI50 [7] was > 100 µM (inactive), the GI50 [8] was 32.1 µM (inactive) and the GI50 [9] was > 100 µM (inactive). For the same compound, the GI50 [10] was > 100 µM (inactive), the GI50 [11] was > 100 µM (inactive) and the GI50 [12] was > 100 µM (inactive). For the same compound, the GI50 [13] was > 100 µM, the GI50 [14] was > 100 µM (inactive) and the GI50 [15] was > 100 µM (inactive). The GI50 [16] was > 100 µM (inactive), the GI50 [17] was > 100 µM (inactive) and the GI50 [18] was > 100 µM (inactive). The GI50 [19] was > 100 µM (inactive), the GI50 [20] was > 100 µM (inactive) and the GI50 [21] was > 100 µM (inactive). For the same compound, the GI50 [22] was 58.5 µM (inactive), the GI50 [23] was > 100 µM (inactive) and the GI50 [24] was > 100 µM (inactive). For the same compound, the GI50 [25] was > 100 µM (inactive), the GI50 [26] was > 100 µM (inactive) and the GI50 [27] was 95.1 µM (inactive). The GI50 [28] was > 100 µM (inactive), the GI50 [29] was > 100 µM (inactive) and the GI50 [30] was 74.3 µM (inactive). For the same compound, the GI50 [31] was 13.3 µM (inactive), the GI50 [32] was > 100 µM (inactive) and the GI50 [33] was > 100 µM (inactive). The GI50 [34] was > 100 µM (inactive), the GI50 [35] was > 100 µM (inactive) and the GI50 [36] was 62.1 µM (inactive). For the same compound, the GI50 [37] was > 100 µM (inactive), the GI50 [38] was > 100 µM (inactive) and the GI50 [39] was 60.1 µM (inactive). The GI50 [40] was 93.1 µM (inactive), the GI50 [41] was > 100 µM (inactive) and the GI50 [42] was > 100 µM (inactive). The GI50 [43] was > 100 µM (inactive), the GI50 [44] was 68.7 µM (inactive) and the GI50 [45] was > 100 µM (inactive). The GI50 [46] was > 100 µM (inactive), the GI50 [47] was 70.5 µM (inactive) and the GI50 [48] was > 100 µM (inactive). The GI50 [49] was > 100 µM (inactive), the GI50 [50] was > 100 µM (inactive) and the GI50 [51] was > 100 µM (inactive). For the same compound, the GI50 [52] was > 100 µM (inactive), the GI50 [53] was 33.4 µM (inactive) and the GI50 [54] was > 100 µM (inactive). For the same compound, the GI50 [55] was 19.4 µM (inactive), the GI50 [56] was > 100 µM (inactive) and the GI50 [57] was > 100 µM (inactive).

For `CCCCCCCCCCCCC(O)C1CCC(C(O)CCCCC(O)CCCCCC2CC(CC(C)=O)C(=O)O2)O1` (configuration not stated), the GI50 [1] was 6.79 µM (inactive), the GI50 [2] was 4.52 µM (inactive) and the GI50 [3] was 3.21 µM (inactive). The GI50 [4] was 7.85 µM (inactive), the GI50 [58] was 2.79 µM (inactive) and the GI50 [5] was 8.87 µM (inactive). For the same compound, the GI50 [6] was 1.43 µM (inactive), the GI50 [59] was 3.19 µM (inactive) and the GI50 [7] was 6.21 µM (inactive). The GI50 [8] was < 0.01 µM (active), the GI50 [9] was 2.21 µM (inactive) and the GI50 [60] was 3.86 µM (inactive). The GI50 [10] was 3.25 µM (inactive), the GI50 [11] was 8.18 µM (inactive) and the GI50 [12] was 0.175 µM (active). The GI50 [13] was 3.35 µM, the GI50 [15] was 11.3 µM (inactive) and the GI50 [16] was 4.58 µM (inactive). The GI50 [17] was 0.986 µM (active), the GI50 [18] was 3.5 µM (inactive) and the GI50 [61] was 1.69 µM (inactive). For the same compound, the GI50 [19] was 5.78 µM (inactive), the GI50 [20] was 0.0186 µM (active) and the GI50 [21] was 4.29 µM (inactive). The GI50 [22] was 1.63 µM (inactive), the GI50 [23] was 1.4 µM (inactive) and the GI50 [24] was 2.81 µM (inactive). The GI50 [25] was 7.29 µM (inactive), the GI50 [26] was 2.45 µM (inactive) and the GI50 [62] was 1.01 µM (active). For the same compound, the GI50 [63] was 2.54 µM (inactive), the GI50 [64] was 1.6 µM (inactive) and the GI50 [28] was 0.94 µM (active). For the same compound, the GI50 [29] was 1.82 µM (inactive), the GI50 [30] was < 0.01 µM (active) and the GI50 [31] was 3.77 µM (inactive). The GI50 [32] was 4.15 µM (inactive), the GI50 [65] was 0.29 µM (active) and the GI50 [66] was 2.09 µM (inactive). For the same compound, the GI50 [33] was 1.44 µM (inactive), the GI50 [34] was 8.75 µM (inactive) and the GI50 [35] was 3.44 µM (inactive). For the same compound, the GI50 [67] was 1.68 µM (inactive), the GI50 [37] was 4.29 µM (inactive) and the GI50 [38] was 3.17 µM (inactive). The GI50 [39] was 3.33 µM (inactive), the GI50 [40] was 0.133 µM (active) and the GI50 [41] was 3.9 µM (inactive). The GI50 [42] was 4.7 µM (inactive), the GI50 [43] was 4.95 µM (inactive) and the GI50 [44] was 0.0931 µM (active). The GI50 [45] was 11.9 µM (inactive), the GI50 [46] was 4.83 µM (inactive) and the GI50 [47] was 2.33 µM (inactive). For the same compound, the GI50 [48] was 3.72 µM (inactive), the GI50 [49] was 12.5 µM (inactive) and the GI50 [50] was 1.34 µM (inactive). The GI50 [51] was 5.87 µM (inactive), the GI50 [68] was 2.77 µM (inactive) and the GI50 [52] was 4.99 µM (inactive). For the same compound, the GI50 [53] was 3.11 µM (inactive), the GI50 [54] was 0.0204 µM (active) and the GI50 [55] was 1.7 µM (inactive). For the same compound, the GI50 [56] was 2.27 µM (inactive) and the GI50 [57] was 1.82 µM (inactive).

Source: ChEMBL document CHEMBL1201862, “PubChem BioAssay data set” (2004)
